From EPA's ToxValDB 9.5 (doi:10.2903/j.efsa.2008.124r)
Converted amounts (≈) assume the structure as drawn.

Legend:
Folsomia candida = details: chronic/long-term; duration: 28 days
Tagia sp. = details: acute; duration: 14 days; mortality
Anas platyrhynchos = details: acute; oral; unspecified; mortality
Lepomis macrochirus = details: acute; duration: 96 hours; mortality
Apis mellifera = details: acute, mortality
Bibionidae = details: chronic/long-term; duration: 28 days; development
Oncorhynchus mykiss = details: chronic/long-term; duration: 21 days; mortality
Canidae = details: chronic; duration: 1 years; oral; Dog Other; organ weight
Phasianus sp. = details: acute; oral; unspecified; mortality
Daphnia magna = details: chronic/long-term; duration: 21 days; mortality

## CC(Cc1ccc(C(C)(C)C)cc1)CN1CCCCC1 (stereo unspecified) [Fenpropidin]
Folsomia candida
  NOEC: 46.5 mg/kg
Tagia sp.
  LC50: > 500 mg/kg
Rattus norvegicus; acute, mortality
  LD50: 1450 mg/kg-day
Rattus norvegicus; chronic, duration: 2 years, body weight
  NOAEL: 2.27 mg/kg-day
Rattus norvegicus; reproduction developmental
  NOAEL: 60.2 mg/kg-day
Anas platyrhynchos
  LD50: 1900 mg/kg-day
Lepomis macrochirus
  LC50: 1.9 mg/L (≈ 6.95 µM)
Apis mellifera; dermal
  LD50: 46 µg/piece
Apis mellifera; oral, unspecified
  LD50: > 10 µg/piece
Bibionidae
  NOEC: 1 mg/L
Oncorhynchus mykiss
  NOEC: 0.32 mg/L
Canidae
  NOAEL: 2 mg/kg-day
Phasianus sp.
  LD50: 369 mg/kg-day
Colinus virginianus; acute, oral, diet, mortality
  LD50: > 1420 mg/kg-day
Colinus virginianus; reproduction developmental
  NOAEL: 14.6 mg/kg-day
Daphnia magna
  NOEC: 0.32 mg/L
